Measurements from patent publication US12150447B2, “Plant growth regulator” (University of Washington, priority 2017, dated 2024).

How the values were obtained:
[1] = biological target: T1, wild-type auxin receptor (TIR1) (Arabidopsis thaliana, UniProt Q570C0); assay: Evaluation of binding to auxin receptor (yeast two-hybrid assay), wild-type receptor; conditions: yeast EGY48, LacZ reporter, X-gal, 30° C. for 3 days; wild type auxin receptor with AUX/IAA protein
T1 construct: expressed in transfected cells; host or cells: Saccharomyces cerevisiae strain EGY48
T1 sequence (Q570C0 1-594): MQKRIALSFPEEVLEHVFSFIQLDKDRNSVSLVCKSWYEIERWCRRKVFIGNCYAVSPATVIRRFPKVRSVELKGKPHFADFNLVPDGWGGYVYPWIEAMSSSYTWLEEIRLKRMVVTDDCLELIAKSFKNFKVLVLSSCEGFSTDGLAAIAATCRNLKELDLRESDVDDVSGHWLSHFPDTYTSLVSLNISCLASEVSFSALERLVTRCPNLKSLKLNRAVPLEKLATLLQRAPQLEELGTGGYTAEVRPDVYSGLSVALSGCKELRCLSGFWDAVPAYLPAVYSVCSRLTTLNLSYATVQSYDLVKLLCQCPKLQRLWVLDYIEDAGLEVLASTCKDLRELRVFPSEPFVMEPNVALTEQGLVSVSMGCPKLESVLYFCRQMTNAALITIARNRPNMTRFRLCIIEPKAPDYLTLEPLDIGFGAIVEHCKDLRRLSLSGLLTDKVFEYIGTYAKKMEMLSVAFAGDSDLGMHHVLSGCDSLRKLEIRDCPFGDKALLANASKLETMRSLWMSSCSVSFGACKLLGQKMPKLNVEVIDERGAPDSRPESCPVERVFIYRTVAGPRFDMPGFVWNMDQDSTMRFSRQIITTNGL
T1 sequence (Q38822 1-93 partner limits assumed): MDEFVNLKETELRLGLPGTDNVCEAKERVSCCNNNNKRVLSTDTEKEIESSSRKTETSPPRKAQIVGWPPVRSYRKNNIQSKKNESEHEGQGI
Procedure: (§1) Test Example 1: Evaluation of Binding to Auxin Receptor (Yeast Two-Hybrid Assay
(§2) Specifically, the inventors set up the assay in the following manner.
The transformant was cultured at 30° C. on an agar plate made of yeast growth medium (minimal SD base and -His/-Trp/-Ura dropout supplement). The colonies were picked up and incubated overnight in liquid SD/-His/-Trp/-Ura medium at 30° C. Afterwards, the medium was replaced with a liquid medium composed of minimal SD/Gal/Raf base, -His/-Trp/-Ura dropout supplement, 50 mM Na-phosphate buffer (pH 7.0), […] X-gal, and various concentrations of test compounds. After incubation at 30° C. for 3 days, the medium containing yeast was transferred to a white 96-well plate (flat bottom) and observed.
(§3) In Table 1, the concentration of “wt TIR” indicates the minimum concentration of the test compound in which the well turns blue when the wild type auxin receptor is used, whereas the concentration of “mut” indicates the minimum concentration of the test compound in which the well turns blue when the mutant auxin receptor (TIR1 F79G) is used.

[2] = biological target: T2, mutant auxin receptor (TIR1 F79G) (Arabidopsis thaliana, UniProt Q570C0, F79G); assay: Evaluation of binding to auxin receptor (yeast two-hybrid assay), mutant TIR1 F79G; conditions: for mut TIR: minimum concentration of the test compound in which the well turns blue: yeast EGY48, LacZ reporter, X-gal, 30° C. for 3 days, TIR1 F79G with AUX/IAA protein
T2 construct: expressed in transfected cells; host or cells: Saccharomyces cerevisiae strain EGY48
Source text: as §1, §2
Yeast strain EGY48 was transformed into a plasmid (pSH18-34) containing a LacZ expression cassette (LexA-operon: LacZ reporter) that is transcriptionally regulated by the LexA-operon, a plasmid derived from pGLex313 containing an expression cassette of LexA-DNA-binding domain fusion protein A (the wild-type auxin receptor: SEQ ID NO. 1, or mutant auxin receptor (TIR1 F79G) where the amino acid residue 79 (phenylalanine) in the wild-type is mutated to a glycine: SEQ ID NO. 2), and a plasmid derived from pJG4-5 containing an expression cassette of B42 transcription activator fusion protein B (AUX/IAA protein: SEQ ID NO: 3). The transformant was cultured at 30° C. on an agar plate made of yeast growth medium (minimal SD base and -His/-Trp/-Ura dropout supplement). The colonies were picked up and incubated overnight in liquid SD/-His/-Trp/-Ura medium at 30° C. Afterwards, the medium was replaced with a liquid medium composed of minimal SD/Gal/Raf base, -His/-Trp/-Ura dropout supplement, 50 mM Na-phosphate buffer (pH 7.0), […] X-gal, and various concentrations of test compounds. After incubation at 30° C. for 3 days, the medium containing yeast was transferred to a white 96-well plate (flat bottom) and observed. The lower the concentration of the test compound when blue color appears, the higher the binding between the test compound and the auxin receptor (wild type or mutant) is. Conversely, higher the concentration of test compound when the blue color appears for the first time, the lower the binding between the test compound and the auxin receptor (wild type or mutant).
as §3

T2 sequence (Q570C0 whole entry F79G, one chain of several): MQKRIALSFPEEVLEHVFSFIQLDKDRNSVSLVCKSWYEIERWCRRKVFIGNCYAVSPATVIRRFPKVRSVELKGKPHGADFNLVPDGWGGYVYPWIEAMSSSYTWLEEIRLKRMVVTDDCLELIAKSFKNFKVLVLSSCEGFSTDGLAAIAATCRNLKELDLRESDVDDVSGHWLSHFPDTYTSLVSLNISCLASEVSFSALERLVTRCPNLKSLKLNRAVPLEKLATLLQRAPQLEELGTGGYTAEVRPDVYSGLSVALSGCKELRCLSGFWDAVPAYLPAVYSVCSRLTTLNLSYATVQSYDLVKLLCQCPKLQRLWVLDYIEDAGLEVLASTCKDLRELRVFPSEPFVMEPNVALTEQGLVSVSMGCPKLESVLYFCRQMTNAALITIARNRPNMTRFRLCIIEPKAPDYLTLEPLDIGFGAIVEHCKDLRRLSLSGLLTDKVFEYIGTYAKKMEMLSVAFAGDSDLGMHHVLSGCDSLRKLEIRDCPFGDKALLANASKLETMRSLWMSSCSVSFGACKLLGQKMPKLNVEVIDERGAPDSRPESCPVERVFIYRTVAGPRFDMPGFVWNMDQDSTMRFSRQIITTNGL

Row | Structure (SMILES) | wt TIR: minimum concentration of the test compound in which the well turns blue [1] [µM] | mut TIR: minimum concentration of the test compound in which the well turns blue [2] [µM] | binding affinity of the mutant auxin receptor (TIR1 F79G) relative to that of the wild type auxin receptor ([2]; ratio mutant / wild type, from Table 1)
1 | Cc1cc(C)cc(-c2ccc3[nH]cc(CC(=O)O)c3c2)c1 [MK-379, 2-(5-(3,5-dimethylphenyl)-1H-indol-3-yl)acetic acid] | 100 | 1 | 
2 | Cc1ccc(Cl)cc1-c1ccc2[nH]cc(CC(=O)O)c2c1 [MK-309, 2-(5-(5-chloro-2-methylphenyl)-1H-indol-3-yl)acetic acid] | 100 | 10 | 
3 | O=C(O)Cc1c[nH]c2ccc(OCC3CCCCC3)cc12 [MK-333, 2-(5-(cyclohexylmethoxy)-1H-indol-3-yl)acetic acid] | 100 | 0.1 | 
4 | O=C(O)Cc1c[nH]c2cc(-c3cccc(Oc4ccccc4)c3)ccc12 [MK-248, 2-(6-(3-phenoxyphenyl)-1H-indol-3-yl)acetic acid] | 10 | 0.1 | 
5 | CCCCCCCOc1ccc2[nH]cc(CC(=O)O)c2c1 [MK-323, 2-(5-(heptyloxy)-1H-indol-3-yl)acetic acid] | 100 | 10 | 
6 | O=C(O)Cc1c[nH]c2ccc(-c3ccccc3)cc12 [Example 42A, 5-(2-Phenyl)-indole-3-acetic acid] | 1 | 0.01 | 
7 | Cc1cccc(-c2ccc3c(CC(=O)O)c[nH]c3c2)c1 [MK-245, 2-(6-(m-tolyl)-1H-indol-3-yl)acetic acid] | 10 | 0.1 | 
8 | O=C(O)Cc1c[nH]c2cc(-c3ccc4c(c3)OCO4)ccc12 [MK-247, 2-(6-(benzo[d][1,3]dioxol-5-yl)-1H-indol-3-yl)acetic acid] | 10 | 0.1 | 
9 | Cc1ccccc1-c1ccc2[nH]cc(CC(=O)O)c2c1 [MK-189, 2-(5-(o-tolyl)-1H-indol-3-yl)acetic acid] | 10 | 0.1 | 
10 | Cc1cccc(-c2ccc3[nH]cc(CC(=O)O)c3c2)c1 [MK-190, 2-(5-(m-tolyl)-1H-indol-3-yl)acetic acid] | 10 | 0.1 | 
11 | Cc1ccc(Cl)c(-c2ccc3[nH]cc(CC(=O)O)c3c2)c1 [MK-307, 2-(5-(2-chloro-5-methylphenyl)-1H-indol-3-yl)acetic acid] | >100 | 10 | 
12 | O=C(O)Cc1c[nH]c2ccc(-c3cc4ccccc4s3)cc12 [Compound 14, 2-(5-(Benzo[b]thiophen-2-yl)-1H-indol-3-yl)acetic acid] | >1 | 0.01 | 
13 | O=C(O)Cc1c[nH]c2ccc(-c3ccc(F)c(Cl)c3)cc12 [MK-255, 2-(5-(3-chloro-4-fluorophenyl)-1H-indol-3-yl)acetic acid] | 100 | 1 | 
14 | COc1ccccc1-c1ccc2[nH]cc(CC(=O)O)c2c1 [Example 27A, 5-(2-methoxyphenyl)-indole-3-acetic acid] | 100 | 10 | 
15 | CCC(C)COc1ccc2[nH]cc(CC(=O)O)c2c1 (centres unmarked) [MK-322, 2-(5-(2-methylbutoxy)-1H-indol-3-yl)acetic acid] | 10 | 0.1 | 
16 | Cc1cc(-c2ccc3[nH]cc(CC(=O)O)c3c2)ccc1F [MK-213, 2-(5-(4-fluoro-3-methylphenyl)-1H-indol-3-yl)acetic acid] | 10 | 0.1 | 
17 | O=C(O)Cc1c[nH]c2ccc(-c3cc(Cl)ccc3Cl)cc12 [MK-308, 2-(5-(2,5-dichlorophenyl)-1H-indol-3-yl)acetic acid] | 100 | 10 | 
18 | O=C(O)Cc1c[nH]c2ccc(-c3ccc4c(c3)OCO4)cc12 [MK-209, 2-(5-(benzo[d][1,3]dioxol-5-yl)-1H-indol-3-yl) acetic acid] | 10 | 0.1 | 
19 | O=C(O)Cc1c[nH]c2cc(-c3ccccc3-c3ccccc3)ccc12 [MK-232, 2-(6-([1,1′-biphenyl]-2-yl)-1H-indol-3-yl)acetic acid] | 100 | 10 | 
20 | O=C(O)Cc1c[nH]c2ccccc12 [Indole-3-acetic acid, indole-3-acetic acid, reference compound] | 0.1 | >100 | less than 1/1000
21 | Cc1ccc(-c2ccc3[nH]cc(CC(=O)O)c3c2)cc1C [MK-230, 2-(5-(3,4-dimethylphenyl)-1H-indol-3-yl)acetic acid] | 10 | 0.1 | 
22 | Cc1ccc(COc2ccc3[nH]cc(CC(=O)O)c3c2)cc1 [MK-350, 2-(5-((4-methylbenzyl)oxy)-1H-indol-3-yl)acetic acid] | >100 | 100 | 
23 | COc1ccc(-c2ccc3[nH]cc(CC(=O)O)c3c2)cc1C [MK-214, 2-(5-(4-methoxy-3-methylphenyl)-1H-indol-3-yl)acetic acid] | 100 | 10 | 
24 | CCCCOc1ccc2[nH]cc(CC(=O)O)c2c1 [RY-215, 2-(5-(butyloxy)-1H-indol-3-yl)acetic acid, reference compound] | 10 | 0.1 | 
25 | CCOc1cccc(-c2ccc3[nH]cc(CC(=O)O)c3c2)c1 [MK-211, 2-(5-(3-ethoxyphenyl)-1H-indol-3-yl)acetic acid] | 100 | 10 | 
26 | COc1cccc(-c2ccc3[nH]cc(CC(=O)O)c3c2)c1 [Example 27B, 5-(3-methoxyphenyl)-indole-3-acetic acid] | 100 | 1 | 
